Test results as given in US8729033B2, “Therapeutic, dietary or cosmetic use of compounds with specific anti-apoptotic activity toward caspase-3, and compositions containing these compounds” (Giuliani S.p.A., priority 2008, dated 2014).

Biological target: T1, caspase-3 (Homo sapiens, UniProt P42574)
T1 construct: host or cells: HFDPC-c cells (follicle dermal papilla cells)
T1 sequence (P42574 29-175 limits assumed): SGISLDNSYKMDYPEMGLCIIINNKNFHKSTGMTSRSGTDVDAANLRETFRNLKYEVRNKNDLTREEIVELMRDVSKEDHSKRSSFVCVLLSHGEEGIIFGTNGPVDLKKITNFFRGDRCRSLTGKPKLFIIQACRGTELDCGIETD
T1 sequence (P42574 176-277 limits assumed): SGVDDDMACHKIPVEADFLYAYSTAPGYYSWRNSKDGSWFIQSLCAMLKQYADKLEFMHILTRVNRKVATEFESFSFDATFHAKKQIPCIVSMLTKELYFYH
Assay: Caspase-3 activity (ApoTarget Caspase-3/CPP32 colorimetric test, DEVD-pNA) in HFDPC-c cells with Staurosporine-induced apoptosis
Type: cell-based
Conditions: for % Inhibition of caspase activity / % Caspase-3 activity: Staurosporine 1 μM, 24 h, number in label = concentration [μM] per Table A; for % Inhibition of caspase activity: ST alone = 0%; for % Caspase-3 activity: related to 100% activity for 1 μM Staurosporine
Description: The activity of caspase-3 has been assessed by using the colorimetric test ApoTarget™Caspase-3/CPP32 with DEVD-pNA as the substrate (BioSource International, Camarillo, Calif.). DEVD-pNA consists of a chromophore group (p-nitroanilide (p-NA) and a synthetic tetrapeptide (DEVD-Asp-Glu-Val-Asp) that represents the consensus sequence for the proteolytic cut catalyzed by caspase-3. The test was carried out by following the specifications indicated by the manufacturer in detail, using an equal amount of total protein (200 μg) for every sample.
Every sample was tested in duplicate. The activity was assessed by measuring the absorbance at 405 nm (in the graphics, ABS 405 nm) with an automatic spectrometer for 96-well plates (MPT Reader DV990 BVG) that carries out a double reading for every well.
Cellular lysis is a technique applied to extract all of the proteins in the cultured cells to be analyzed. Various lysis protocols exist: the one used in the experimental tests described here consists of the use of a highly denaturing buffer (lysis buffer, provided within the kit for the test of the caspase-3 activity). After incubation with the various active ingredients, the lysis buffer is placed onto the cell plates, a scraper is then used directly on the layer of cells to help collect the largest quantity possible. The protein extraction is then improved with incubation on ice (4° C.) for 10 minutes. The cellular debris are precipitated with centrifugation at 10,000×g for 1 minute. The lysates are retrieved and frozen at −80° C.
The activity of caspase-3 was assessed by using the colorimetric assay ApoTarget™Caspase-3/CPP32, and the concentration of the protein was assessed by using the Lowry-Ciocalteau method and a BSA standard as described above.
The incubation was also maintained for 24 hours in this case.
At the end of the incubation the plates in which the cells were cultivated were laid out on a bed of ice, washed once in cold PBS and incubated in the lysis buffer. After the lysis, the protein assay and the caspase-3 activity test was carried out.

Compound	% Inhibition of caspase activity	% Inhibition of caspase activity (listed as R20)	% Caspase-3 activity	% Caspase-3 activity (listed as R20)	% Inhibition of caspase activity (listed as Z4)	% Caspase-3 activity (listed as Z4)	induction of apoptosis (caspase-3 activity) (1 μM, 24-hour incubation, FIG. 1)
C[C@@H]1O[C@@H](OC[C@H]2O[C@@H](Oc3c(-c4ccc(O)c(O)c4)oc4cc(O)cc(O)c4c3=O)[C@H](O)[C@@H](O)[C@@H]2O)[C@H](O)[C@H](O)[C@H]1O [Example R2, Rutin]	32.10%	46.27%	67.90%	53.73%	–	–	–
Cl.Cl.Cl.NCCCCNCCCN [Example S0.1, Spermidine trihydrochloride]	21.64%	–	78.36%	–	–	–	–
CC1=C(/C=C/C(C)=C/C=C/C(C)=C/C=C/C=C(C)/C=C/C=C(C)/C=C/C2=C(C)C[C@@H](O)CC2(C)C)C(C)(C)C[C@H](O)C1 [Example Z0.4, Zeaxanthin]	29.00%	–	71.00%	–	13.20%	86.80%	–
CN[C@@H]1C[C@H]2O[C@@](C)([C@@H]1OC)n1c3ccccc3c3c4c(c5c6ccccc6n2c5c31)C(=O)NC4 [Staurosporine, reference compound]	–	–	–	–	–	–	increase in caspase-3 activity
